{"source": "patent US5162304A", "about": "“Pharmaceutical compositions and methods for treatment and prophylaxis of cancer” (priority 1990, dated 1992)", "key": {"[1]": {"test_system": "Ehrlich's mouse ascites carcinoma cells", "assay": "Test 7 and Comparing Tests 3 and 4: survival of mice inoculated with Ehrlich's mouse ascites carcinoma cells", "assay_type": "in vivo, male C57BL/6 mice", "settings": "bleomycin alone; for Number of surviving mice: of 8", "description": "5-week old male C57BL/6 mice were intraperitoneally inoculated with 10^6 Ehrlich's mouse ascites carcinoma cells. Since 24 hours later, a 50 μg/ml solution of bleomycin in 0.25% HCO-60 solution in physiological saline, and a suspension containing 50 μg/ml of bleomycin and 5 μg/ml of 14-methyl-1-pentadecanol were intraperitoneally injected at a dose of 10 mg/kg·day and 11 mg/kg·day, respectively, to each 8 animals/group for 5 days. The survival time of the injected mice was then followed."}, "[2]": {"test_system": "Ehrlich's mouse ascites carcinoma cells", "assay": "Tests 4, 5 and Comparing Test 1: cytocidal activity of bleomycin alone or with isomonool, Ehrlich's cells", "assay_type": "cell-based", "description": "(§1) The cytocidal activity (IC90) of bleomycin was evaluated when used alone or used in combination with 14-methyl-1-pentadecanol or 14-methyl-1-hexadecanol, using Ehrlich's mouse ascites carcinoma cells and human lung tumor A549 cells."}, "[3]": {"test_system": "human lung carcinoma A549 cells", "assay": "Tests 4, 5 and Comparing Test 1: cytocidal activity of bleomycin alone or with isomonool, A549 cells", "assay_type": "cell-based", "description": "as §1"}, "[4]": {"test_system": "Ehrlich's ascites cells", "assay": "Test 6 and Comparing Test 2: uptake of bleomycin into Ehrlich's ascites cells", "assay_type": "cell-based, mouse", "settings": "bleomycin alone"}}}
{"substance": "bleomycin [reference compound]", "values": [{"measurement": "mean survival time after inoculation", "setting": "[1]; i.p., 10 mg/kg.day for 5 days (Comparing test 3)", "result": 33.3, "unit": "days"}, {"measurement": "Number of surviving mice", "setting": "[1]; day 14", "result": 7}, {"measurement": "Number of surviving mice", "setting": "[1]; day 15", "result": 6}, {"measurement": "Number of surviving mice", "setting": "[1]; day 16", "result": 6}, {"measurement": "Number of surviving mice", "setting": "[1]; day 17", "result": 6}, {"measurement": "Number of surviving mice", "setting": "[1]; day 18", "result": 6}, {"measurement": "Number of surviving mice", "setting": "[1]; day 19", "result": 6}, {"measurement": "Number of surviving mice", "setting": "[1]; day 20", "result": 6}, {"measurement": "Number of surviving mice", "setting": "[1]; day 23", "result": 4}, {"measurement": "Number of surviving mice", "setting": "[1]; day 33", "result": 3}, {"measurement": "Number of surviving mice", "setting": "[1]; day 41", "result": 2}, {"measurement": "Number of surviving mice", "setting": "[1]; day 45", "result": 2}, {"measurement": "Number of surviving mice", "setting": "[1]; day 52", "result": 2}, {"measurement": "Number of surviving mice", "setting": "[1]; day 57", "result": 1}, {"measurement": "Number of surviving mice", "setting": "[1]; day 60", "result": 1}, {"measurement": "Cytocidal activity (IC90) of bleomycin alone", "setting": "[2]", "result": 20, "unit": "µg/mL"}, {"measurement": "Cytocidal activity (IC90) of bleomycin alone", "setting": "[3]", "result": 44, "unit": "µg/mL"}, {"measurement": "Bleomycin uptake", "setting": "[4]; 30 min", "result": 0.03, "unit": "μg/mg Ehrlich's cell"}, {"measurement": "Bleomycin uptake", "setting": "[4]; 60 min", "result": 0.06, "unit": "μg/mg Ehrlich's cell"}, {"measurement": "Bleomycin uptake", "setting": "[4]; 120 min", "result": 0.12, "unit": "μg/mg Ehrlich's cell"}, {"measurement": "Bleomycin uptake", "setting": "[4]; 180 min", "result": 0.13, "unit": "μg/mg Ehrlich's cell"}, {"measurement": "Bleomycin uptake", "setting": "[4]; Initial", "result": 0, "unit": "μg/mg Ehrlich's cell"}]}
